Test results published in patent publication US20190110476A1, “NOVEL ISOTHIAZOLAMIDES, PROCESSES FOR THEIR PREPARATION AND THEIR USE AS FUNGICIDES” (priority 2014, published 2019).
Marks after values point to notes of the source that are not given here.

Assay: Measurement of LogP values by HPLC on reversed phase columns (EEC directive 79/831 Annex V.A8)
Assay type: physicochemical
Conditions: not given
Method: The abbreviations and numerations of the substituent positions used in the context of the present invention and in the following Tables are explained in detail in the section Examples hereinafter. Also, the LogP values indicated in the following Tables are explained in detail in the section Examples hereinafter. In case LogP values for different diastereoisomers of a specific compound are […], said LogP values are […] by a “+”. […] Measurement of LogP values was performed according to EEC directive 79/831 Annex V.A8 by HPLC (High Performance Liquid Chromatography) on reversed phase columns with the following methods: […] Lambda-max-values were determined using UV-spectra from 200 nm to 400 nm and the peak values of the chromatographic signals

SMILES	LogP	LogP [a]	LogP [b]
COc1ccc(CNc2nsc(C(=O)NCc3cnccc3OC)c2Cl)cc1 [I-1330]	1.49[a]		
Cc1c(N)nsc1C(=O)NCc1c(F)cccc1F [I-146]	1.49[a]		
COc1ccc(CNc2nsc(C(=O)NCc3nc(C)cs3)c2Cl)cc1 [I-1203]	2.80[a]		
CS(C)=Nc1nsc(C(=O)NCC2CCOC2)c1F (stereo not shown) [II-071]		0.26^[a]	
C[C@H](NC(=O)c1snc(Nc2ccc(F)cc2)c1Cl)C1CCCCC1 [I-063]	4.81[a]		
CCC(C)CNC(=S)c1snc(N)c1Cl (stereo not shown) [I-1022]	2.87[a]		
Nc1nsc(C(=O)NC2CCCCC2)c1Br [I-841]	2.11[a]		
CC(Cc1ccccc1Cl)NC(=O)c1snc(N)c1Cl (stereo not shown) [II-011]		2.64^[a]	
Nc1nsc(C(=O)NCC2CC=C(F)CC2)c1F (stereo not shown) [I-1296]	1.69[a]		
Nc1nsc(C(=O)N(Cc2cc(Cl)ccc2Br)C2CC2)c1Cl [I-365]	3.29[a]		
Nc1nsc(C(=O)N2CCc3c(Cl)ccc(Cl)c3C2)c1Cl [II-022]		2.88	2.82
Nc1nsc(C(=O)NCc2cc(Cl)ccc2Cl)c1Cl [I-416]	2.71[a]		
CC(Cc1ccc(Cl)cc1)NC(=O)c1snc(N)c1Cl (stereo not shown) [II-027]		2.68^[a]	
O=C(NCc1ccccc1Cl)c1cc(N(Cc2ccccc2)Cc2ccccc2)ns1 [I-284]	4.67[a]		
Nc1nsc(C(=O)N(Cc2ccc(Cl)cc2Cl)C2CCC2)c1Cl [I-211]	3.85[a]		
COc1ccc(CNc2nsc(C(=O)NCC3CCCCC3)c2Cl)cc1 [I-098]	4.20[a]		
COc1c(N)nsc1C(=O)NCC1CCCC1 [I-736]	1.87[a]		
COc1ccc(CNc2nsc(C(=O)NC3CC(C)CC(C)(C)C3)c2Cl)cc1 (stereo not shown) [I-1206]	5.00[a]		
Nc1nsc(C(=O)NCC2(F)CCCC2)c1Br [I-829]	1.83[a]		
CCC(=O)Nc1nsc(C(=O)NCC2CCCCC2)c1Cl [I-109]	2.50[a]		
CC1CCc2ccccc2N1C(=O)c1snc(N)c1Cl (stereo not shown) [II-101]		2.48	2.39
COc1ccc(CNc2nsc(C(=O)NC(C)(C)c3ccon3)c2Cl)cc1 [I-1329]	3.04[a]		
CCC(c1ccc(Cl)cc1Cl)N(C(=O)c1snc(NCc2ccc(OC)cc2)c1Cl)C1CC1 (stereo not shown) [I-932]	5.62[a]		

SMILES	LogP	LogP [a]	LogP [b]
O=C(c1cc(N(Cc2ccccc2)Cc2ccccc2)ns1)N(Cc1c(Cl)cccc1Cl)C1CC1 [I-939]	5.90[a]		
CCc1ccccc1CN(C(=O)c1snc(N)c1Cl)C1CC1 [I-153]	3.04[a]		
Nc1nsc(C(=O)NCC2CCCCC2)c1-c1ccc(F)cc1 [I-332]	2.96[a]		
CCCS(CC)=Nc1nsc(C(=O)NCc2ccc(F)c(F)c2F)c1F (stereo not shown) [II-104]		1.96^[a]	
O=C(NCc1ncc(C(F)(F)F)cc1Cl)c1cc(N(Cc2ccccc2)Cc2ccccc2)ns1 [I-162]	4.98[a]		
CC(C)(NC(=O)c1snc(NCc2ccccc2)c1Cl)C1CCCCC1 [I-048]	5.35[a]		
O=C(NCc1ccc(Cl)cc1Cl)c1cc(N(Cc2ccccc2)Cc2ccccc2)ns1 [I-323]	5.17[a]		
C[C@H](NC(=O)c1snc(NC2CC2)c1Cl)C1CCCCC1 [I-061]	3.75[a]		
COc1ccc(CNc2nsc(C(=O)Nc3ccc(Cl)cc3)c2Cl)cc1 [I-868]	4.21[a]		
COc1ccc(CNc2nsc(C(=O)N(Cc3ccc(C)cc3C)C3CC3)c2Cl)cc1 [I-892]	4.80[a]		
O=C(NCC1CCOCC1)c1snc(Cl)c1Cl [E-II-004]		2.05^[a]	
O=C(NCc1ccc(F)cc1)c1cc(N(Cc2ccccc2)Cc2ccccc2)ns1 [I-309]	4.36[a]		
Cc1cc(F)ccc1CNC(=O)c1snc(NC(=O)C(F)(F)F)c1Cl [I-816]	2.72[a]		
O=C(NC1CCCC2CCCCC21)c1snc(NCC(F)(F)F)c1NCC(F)(F)F (stereo not shown) [I-631]	4.82[a]		
C[C@H](NC(=O)c1snc(N(S(C)(=O)=O)S(C)(=O)=O)c1Cl)C1CCCCC1 [I-103]	3.76[a]		
Nc1nsc(C(=O)NCc2cccc(Cl)c2)c1Cl [I-021]	2.15[a]		
CCCS(CC)=Nc1nsc(C(=O)NCc2c(F)cc(F)cc2F)c1F (stereo not shown) [II-105]		1.92^[a]	
COc1ccc(CNc2nsc(C(=O)NCC3CC=CCC3)c2Cl)cc1 (stereo not shown) [I-078]	3.90[a]		
COc1ccc(CNc2nsc(C(=O)NC(C)c3ccccn3)c2Cl)cc1 (stereo not shown) [I-1197]	2.57[a]		
COc1ccc(CNc2nsc(C(=O)N(Cc3c(Cl)cccc3C(F)(F)F)C3CC3)c2Cl)cc1 [I-946]	4.91[a]		
Nc1nsc(C(=S)NCc2ccc(Cl)cc2)c1Cl [I-1026]	3.12[a]		
CC(C)CNC(=O)c1snc(N)c1Cl [I-1018]	1.55[a]		
Nc1nsc(C(=O)NCC2=CCCCC2)c1Cl [I-089]	2.30[a]		

SMILES	LogP	LogP [a]	LogP [b]
O=C(NCc1ccc(Cl)cc1)c1cc(N(Cc2ccccc2)Cc2ccccc2)ns1 [I-314]	4.85[a]		
COc1ccc(CNc2nsc(C(=O)NCc3cc(OC)c(OC)c(OC)c3)c2Cl)cc1 [I-1344]	3.08[a]		
CCC(NC(=O)c1snc(NCc2ccc(OC)cc2)c1Cl)C1CCCCC1 (stereo not shown) [I-1170]	4.83[b]		
Cc1c(N)nsc1C(=O)NCc1cc(F)c(F)c(F)c1 [I-584]	1.92[a]		
O=CNc1cc(C(=O)NCc2ccc(F)cc2F)sn1 [I-430]	1.79[a]		
Nc1nsc(C(=O)N2CCCc3cc(Cl)ccc32)c1Cl [II-026]		2.66	2.60
CS(C)=Nc1nsc(C(=O)NCc2c(F)cc(F)cc2F)c1F [II-079]		1.40^[a]	
COc1ccc(CNc2nsc(C(=O)N(CC(C)C)C3CC3)c2Cl)cc1 [I-900]	4.09[a]		
O=C(NCc1ccccc1Cl)c1snc(Cl)c1Cl [E-II-003]		3.52^[a]	
COc1ccc(CNc2nsc(C(=O)NCCCn3cccn3)c2Cl)cc1 [I-1194]	2.53[a]		
COc1ccc(CNc2nsc(C(=O)Nc3cccc4c3C(C)OC4(C)C)c2Cl)cc1 (stereo not shown) [I-869]	3.96[a]		
N#Cc1ccccc1CNC(=O)c1snc(N)c1Cl [I-1288]	1.43[a]		
COc1ccc(CNc2nsc(C(=O)NCc3ccc(Cl)c(OC)c3)c2Cl)cc1 [I-390]	3.76[a]		
COc1ccc(CNc2nsc(C(=O)N(c3ccc(F)cc3)C3CC3)c2Cl)cc1 [I-922]	3.85[a]		
Nc1cc(C(=O)N(Cc2c(Cl)cccc2Cl)C2CC2)sn1 [I-968]	2.53[a]		
CCCCn1cc(CNC(=O)c2snc(NCc3ccc(OC)cc3)c2Cl)c(C)n1 [I-1260]	3.21[a]		
COc1ccc(CNc2nsc(C(=O)NCc3cc(C(F)(F)F)ccc3Cl)c2Cl)cc1 [I-1246]	4.37[a]		
CC(C)(C)OC(=O)Nc1nsc(C(=O)O)c1Cl [E-VIII-001]		1.35^[a]	
Cc1c(N)nsc1C(=O)NCc1ccc(Cl)cc1F [I-159]	2.00[a]		
Nc1nsc(C(=O)NCC23CCC(CC2)C3)c1Cl [I-822]	2.53[a]		
O=C(c1cc(N(Cc2ccccc2)Cc2ccccc2)ns1)N(Cc1cc(Cl)ccc1Br)C1CC1 [I-993]	6.11[a]		
Nc1nsc(C(=O)NCc2cccnc2Cl)c1Cl [I-036]	1.22[a]		
CC(C)N(Cc1ccc(Cl)cc1Cl)C(=O)c1cc(N(Cc2ccccc2)Cc2ccccc2)ns1 [I-941]	6.48[a]		

SMILES	LogP	LogP [a]	LogP [b]
CC(C)(C)OC(=O)Nc1nsc(C(=O)NCC2CCCCC2Cl)c1Cl (stereo not shown) [I-1571]	3.53[a]		
O=C(NCc1cc(F)c(F)cc1F)c1snc(N=S2CCCC2)c1F [II-074]		1.53^[a]	
CCC(=O)Nc1nsc(C(=O)NC(C)C2CCCCC2)c1Cl (stereo not shown) [I-601]	2.82[a]		
CC1CCC(CNC(=O)c2snc(N)c2Cl)CC1 (stereo not shown) [I-738]	2.75[a]		
O=CNc1nsc(C(=O)NCc2ccc(F)cc2F)c1Cl [I-467]	1.89[a]		
COc1ccc(CNc2nsc(C(=O)Nc3ccccc3C#N)c2Cl)cc1 [I-881]	3.62[a]		
Nc1nsc(C(=O)NCc2ccc(Br)cc2)c1Cl [I-372]	2.39[a]		
CC(C)(C)OC(=O)Nc1nsc(C(=O)NCC2CCCCC2Cl)c1Cl (stereo not shown) [I-1581]	3.56[a]		
COc1ccc(CNc2nsc(C(=O)NC3CCCCc4ccccc43)c2Cl)cc1 (stereo not shown) [I-1334]	4.40[a]		
COc1ccc(CNc2nscc2Cl)cc1 [Z-A-005]		3.00^[a]	
C[C@H](NC(=O)c1snc(N(Cc2ccccc2)Cc2ccccc2)c1C1CC1)C1CCCCC1 [I-264]	6.20[a]		
Cc1ccc(F)cc1CNC(=O)c1snc(N)c1Cl [I-127]	2.08[a]		
Nc1nsc(C(=O)NCC2CCCC2O)c1Cl (single isomer, unassigned) [I-772]	1.09[a]		
Nc1nsc(C(=O)NCC2CCCCC2)c1N [I-1539]	1.37[a]		
CNS(=O)(=O)Nc1nsc(C(=O)NCC2CCCCC2)c1Cl [II-051]		2.38^[a]	
O=C(c1cc(N(Cc2ccccc2)Cc2ccccc2)ns1)N(Cc1cc(Cl)ccc1F)C1CC1 [I-992]	5.59[a]		
C[C@H](NC(=O)c1snc(NC(=O)C2CC2)c1Cl)C1CCCCC1 [I-090]	2.99[a]		
Nc1nsc(C(=O)N(Cc2cc(F)ccc2F)C2CC2)c1Cl [I-362]	2.57[a]		
Nc1nsc(C(=O)NC2CCCC3CCCCC32)c1Cl (stereo not shown) [I-622]	3.48[a]		
CS(C)=Nc1nsc(C(=O)NCc2cc(F)c(F)c(F)c2)c1Cl [II-046]		1.68^[a]	

Same assay, conditions: HPLC LC-UV, acidic range, 0.1% formic acid in water and acetonitrile as eluent

SMILES	chromatographic logP
CCOC(=O)c1snc(N(Cc2ccccc2)Cc2ccccc2)c1Br [E-VII-008, ethyl 4-bromo-3-(dibenzylamino)-1,2-thiazole-5-carboxylate]	5.8
CCOC(=O)c1cc(N(Cc2ccccc2)Cc2ccccc2)ns1 [E-VII-012, ethyl 3-(dibenzylamino)-1,2-thiazole-5-carboxylate]	5.13
